Measurements as given in US6107489A, “Extended lifetimes in vivo renin inhibitors” (ConjuChem, Inc., priority 1999, dated 2000).
Like-named read-outs stand apart in the source and are kept apart here.

Key:
renin [1] = molecular target: T1, renin (Homo sapiens, UniProt P00797); assay: renin inhibition IC50; assay type: biochemical
T1 sequence (P00797 67-406): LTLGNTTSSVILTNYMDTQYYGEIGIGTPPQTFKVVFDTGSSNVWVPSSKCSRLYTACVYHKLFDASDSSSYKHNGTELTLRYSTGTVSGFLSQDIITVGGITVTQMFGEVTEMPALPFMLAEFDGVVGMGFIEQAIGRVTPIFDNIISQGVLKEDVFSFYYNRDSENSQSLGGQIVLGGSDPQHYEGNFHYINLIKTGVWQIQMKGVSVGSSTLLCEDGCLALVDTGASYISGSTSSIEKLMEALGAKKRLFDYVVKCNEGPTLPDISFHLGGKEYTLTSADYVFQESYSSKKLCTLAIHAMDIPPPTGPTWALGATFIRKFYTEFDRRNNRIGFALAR

renin [2] = assay type: in vivo, rabbit; settings: for Corrected % Inhibition: normalized for dilution
Procedure: Materials and Methods: The following procedures were done under sterile conditions. Rabbit plasma was obtained from freshly drawn heparinized blood. One 8 mL aliquot of plasma was incubated with 5 micromoles of YS-004-69 (15) (the NHS ester; "NHS-RI") for 60 minutes at room temperature. Another equal aliquot was similarly incubated with 5 micromoles of YS-004-65 (free acid; "Free RI"). The reaction mixtures were stored at 4° C. overnight. Aliquots of these samples were saved for analysis of total renin inhibitor content by a standard renin radioimmunoassay (RIA). After warming to 37° C., the plasma samples were injected into two autologous rabbits. The rabbits were then bled at defined intervals. The blood was centrifuged for 5 minutes at 2500 rpm and then aliquots of the plasma were analyzed by RIA. Results: Plasma proteins derivatized with the NHS ester of the renin inhibitor did indeed maintain the inhibitor in a conformation which remained bioavailable and inhibitory after an extended period of circulation in the blood. […] Again, the amount of inhibitor detectable has been normalized for the effect of dilution of the plasma by the volume of blood in circulation. "ND" means this measurement was not determined.

IC50 (renin [1]) [nM] | Molecule | Crude % Inhibition (renin [2]; 10 min after injection) [%] | Corrected % Inhibition (renin [2]; 10 min after injection) [%] | Crude % Inhibition (renin [2]; 30 min after injection) [%] | Corrected % Inhibition (renin [2]; 30 min after injection) [%] | Crude % Inhibition (renin [2]; 1 hour after injection) [%] | Corrected % Inhibition (renin [2]; 1 hour after injection) [%] | Crude % Inhibition (renin [2]; 4 hours after injection) [%] | Corrected % Inhibition (renin [2]; 4 hours after injection) [%] | Crude % Inhibition (renin [2]; 6 hours after injection) [%] | Corrected % Inhibition (renin [2]; 6 hours after injection) [%] | Crude % Inhibition (renin [2]; 8 hours after injection) [%] | Corrected % Inhibition (renin [2]; 8 hours after injection) [%] | Crude % Inhibition (renin [2]; 1 day after injection) [%] | Corrected % Inhibition (renin [2]; 1 day after injection) [%] | Crude % Inhibition (renin [2]; 2 days after injection) [%] | Corrected % Inhibition (renin [2]; 2 days after injection) [%] | Crude % Inhibition (renin [2]; 3 days after injection) [%] | Corrected % Inhibition (renin [2]; 3 days after injection) [%] | Corrected % Inhibition (renin [2]; 6 days after injection) [%] | other results
50 | CC[C@H](C)[C@H](NC(=O)C[C@H](O)[C@H](CC1CCCCC1)NC(=O)[C@H](Cc1c[nH]cn1)NC(=O)[C@H](Cc1ccccc1)NC(=O)OC(C)(C)C)C(=O)NCCCCCC(=O)O [YS-004-65, Boc-Phe-His-ACHPA-IIe-6-AC-OH] | 89.40 | 100.00 | 20.60 | 23.04 | -2.80 | -3.13 | -5.20 | -5.82 | -0.40 | -0.45 | -2.90 | -3.24 | -5.20 | -5.82 | -3.20 | -3.58 | 1.40 | 1.57 | 0.00 | Crude % Inhibition (renin [2]; 10 days after injection): -6.60%; Corrected % Inhibition (renin [2]; 10 days after injection): -7.38%; level of renin inhibitor / inhibition in plasma over time (renin [2]; rabbit, in vivo): not detectable after one hour
4 to 19 | CC[C@H](C)CNC(=O)C[C@H](O)[C@H](CC1CCCCC1)NC(=O)[C@H](Cc1c[nH]cn1)NC(=O)[C@H](Cc1ccccc1)NC(=O)OC(C)(C)C [parent renin inhibitor, reference compound] | – | – | – | – | – | – | – | – | – | – | – | – | – | – | – | – | – | – | – | –
– | Boc-Phe-His-ACHPA-IIe-6-AC-NHS [YS-004-69] | 97.70 | 100.00 | 87.40 | 89.46 | 85.90 | 87.92 | 87.40 | 99.69 | 88.20 | 100.51 | 70.50 | 72.16 | 75.10 | 76.87 | 68.10 | 69.70 | 75.80 | 77.38 | 56.60 | Crude % Inhibition (renin [2]; 6 days after injection): 55.30%; Crude % Inhibition (renin [2]; 10 days after injection): 41.20%; Corrected % Inhibition (renin [2]; 10 days after injection): 42.17%
